The record followed here is patent publication US20160214958A1, “COMPOUNDS AND USE FOR TREATING CANCER” (GLIONOVA AB, priority 2013, published 2016).

In series [1] the test system is human fibroblasts. The experiment in a line: Viability (ATP) of fibroblasts in presence of S10. It counts as cell-based. Conditions: Fibroblast. As for the experimental part:
The ability of Examples S1-S23 to selectively induce cytotoxicity in glioma/glioblastoma cancer cells or glioma/glioblastoma cancer stem cells was determined by quantification of ATP production in glioma stem cell line U3013 in the presence of using CellTiterGlo reagent (Promega). Cells were exposed to compound in serial dilution in the range 1 nM to 50 µM for 24 hours and viability assessed with respect to negative control (dmso, no cell death) and positive control (staurosporine, full cell death). […] The EC50 of S10 remained largely similar at 2, 3 and 4 days of incubation. […] The individual isomers (S21-S23) of racemic S10 were evaluated in order to determine the enantiospecific pharmacology of the individual isomers.
For measuring cell viability, cytotoxicity and apoptosis in GSC/fibroblast/mGlia cells were grown in 384-well microtiter plates using procedure described above. […] Cell viability, cytotoxcity and apoptosis were measured using CellTiter-Glo® Luminescent Cell Viability Assay (Promega), CytoTox-Glo Cytotoxicity Assay and […], according to manufacturer's instructions. […] Luminescence was measured using a Victor3 FA (Perkin Elmer) microtiterplate reader and the level of released Caspase 3/7 quantified relative to control using GraphPad Prism (v6.02) software.

A short description of series [2]: In vivo pharmacokinetics studies of S10 (iv, ip, per oral). Also on record: species or system male BALB/c Mice. As to conditions: male, BALB/c, mouse, ip and per oral administration. As for the experimental part:
The bioavailability of S10 by oral and intraperitoneal injection in vivo was investigated. […] In a second delivery regimen, treatment was performed per orally (20 mg/kg) twice daily for five days. Treatment started at a terminal stage of GBM, i.e. six weeks after engraftment of U3013M GSCs and median survival from the time of treatment initiation and the Hazard ratio were scored.
In vivo pharmacokinetic studies of S10 were performed at SAI Life Sciences Ltd., Hyderabad, India to determine the plasma pharmacokinetics and brain distribution of S10 following a single intravenous, intraperitoneal and oral administration in male BALB/c Mice. Blood samples (approximately 60 μL) were collected from retro-orbital plexus of each mouse. The plasma and brain samples were obtained at 0.08, 0.25, 0.5, 1, 2, 4, 8, 24, 48, 72 and 144 hr (i.v.); 0.08, 0.25, 0.5, 1, 2, 4, 8 and 24 hour (i.p.) and 0.25, 0.5, 1, 2, 4, 6, 8, 24, 48, 72 and 144 hr (p.o.) post dosing. Plasma was harvested by centrifugation of blood and stored at −70° C. until analysis. Immediately after collection of blood, brain samples were collected from each mouse. Tissue samples (brain) were homogenized using ice-cold phosphate buffer saline (pH 7.4) and homogenates were stored below −70° C. until analysis. […] Plasma and brain samples were quantified using LC-MS/MS method LLOQ=1.03 ng/mL for plasma and LLOQ=10.25 ng/mL for brain. […]

Series [3] deals with histone H3 trimethylation at lysine 27 (H3K27me3). The experiment in a line: Western blot of GSC for H3K27me3. As to conditions: GSC treated for 5 min to 26 hours. It counts as cell-based, human. The method, then: Cell extracts were immunoblotted for phosphor-MKK4 (P-MKK4) and histone H3 trimethylation at lysine 27 (H3K27me3).
Whole-cell extracts were prepared in SDS-buffer (25 mM Tris-HCl, pH 7.5, 1 mM EDTA, protease inhibitor cocktail (Roche), and phosphatase inhibitors [2 mM sodium orthovanadate, 20 mM beta-glycerolphosphate], and 1% SDS). The samples were analysed by western blot as described previously (Aranda et al. (2008) Mol Cell Biol, 28, 5899-5911) with the following antibodies: anti-Histone H3 (Abcam), antitrimethyl(Lys27)-Histone H3 (Millipore) and anti-phospho(S257/Thr261)-SEK1/MKK4 (R&D Systems).
A general note: A western blot detects proteins with antibodies after separation by electrophoresis.

For the compound `OC(c1cc(-c2ccc(Cl)cc2)nc2ccccc12)C1CCCCN1` (racemic) [Compound S10, (2-(4-chlorophenyl)quinolin-4-yl)(piperidin-2-yl)methanol], the EC50 (as a rule, the concentration needed to bring the measured effect to its halfway point) worked out at 18.7 µM in series [1] (after 24 hrs) and 23 µM in series [1] (at 96 hours). In addition, in series [2] (plasma, following iv, read-out: bioavailability F), the bioavailability (usually dose-corrected exposure relative to a reference, in per cent) is 69%. In addition, the half-life in series [2] (plasma and brain exposure following iv, read-out: half-life t1/2 (converted)) is 20 h. Further, in series [3], the “effect on H3K27me3” value is on record as “lack of inhibition effects”.
